Laboratory results reported in PMC5573420, “Correlation between human ether‐a‐go‐go‐related gene channel inhibition and action potential prolongation” (British Journal of Pharmacology, 2017).
Where “and” joins values, the source holds several entries; their conditions need not be identical. Equal values may be shown once. Entries after “also recorded” stand apart in the source; their conditions may differ. Read-outs that look alike come from different tables or passages of the source.

Tests used:
[1] = test system: hERG potassium channels; conditions: cited from earlier work
[2] = target: hERG channels (Homo sapiens, UniProt Q12809); experiment: hERG current inhibition, automated planar patch clamp in HEK293 cells stably expressing hERG
Description: (§1) Currents were low‐pass filtered at 10 kHz using the internal Bessel filter and sampled at 25 kHz. The extracellular solution for hERG current recording contained 140 mM NaCl, 4 mM KCl, 2 mM CaCl2, 1 mM MgCl2,5 mM D‐glucose and 10 mM HEPES (pH 7.4) (Sigma‐Aldrich). The intracellular solution for hERG current recording contained 50 mM KCl, 10 mM NaCl, 60 mM KF, 20 mM EGTA and 10 mM HEPES (pH 7.2). The extracellular solution for measuring sodium currents in HEK cells stably expressing the human clone of Nav1.5 (GenBank M77235) contained 4 mM KCl, 20 mM NaCl, 1.8 mM CaCl2, 0.75 mM MgCl2, 5 mM HEPES, 120 mM choline chloride and pH 7.4 using NaOH. The intracellular solution for sodium current recording contained 120 mM CsF, 20 mM CsCl, 5 mM EGTA, 5 mM HEPES and pH 7.4 using CsOH. All chemicals were obtained from Sigma‐Aldrich Chemie GmbH (Taufkirchen, Germany). The compound solutions were applied by means of the automated NPC‐16 Patchliner planar patch‐clamp platform.
Data are presented as mean ± SEM for at least five cells from two different batches or for three independent measurements with HEK293 cells.
The concentration–inhibition relationships were analysed by plotting the normalized values of peak tail current versus peak tail steady current in the presence of the respective cumulatively applied compound concentrations (Figure 4B, C). Data points were fitted using Hill equation.

[3] = test system: hiPSC-CMs; experiment: Optical measurement of action potential duration (APD90) in hiPSC-CMs using voltage-sensitive dye di-4-ANEPPS; conditions: for Maximal AP prolongation: maximal level over concentrations tested
Description: The plates were then incubated at 37°C, 5% CO2. Forty‐eight hours post‐thaw, 100% of the plating medium was replaced with CDI Maintenance Medium (CDI, CMC‐100‐120‐001), and further, 100% media changes were performed every 2 days after that.
Afterwards, the medium containing VSD was replaced by fresh serum‐free medium, and the cells were returned to the incubator. The multi‐well plate was placed in an environmentally controlled stage incubator (37°C, 5% CO2, water‐saturated air atmosphere) (Okolab Inc, Burlingame, CA, USA) of the CelIOPTIQ platform (Clyde Biosciences Ltd, Glasgow, Scotland). The di‐4‐ANEPPS fluorescence signal was recorded from a 0.2 × 0.2 mm area using a 40× (NA 0.6) objective lens. Excitation wavelength was 470 ± 10 nm using a light‐emitting diode (LED), and emitted light was collected by two photomultipliers (PMTs) at 510–560 and 590–650 nm respectively. LED, PMT, associated power supplies and amplifiers were supplied by Cairn Research Ltd (Kent, UK). […] A 20 s recording was then taken 30 min after exposure to the drug or vehicle with only one concentration applied per well. The records were subsequently analysed offline using proprietary software (CellOPTIQ). The procedure was repeated from four to five times, and parallel matched control (vehicle) measurements were taken on cardiomyocytes with equivalent concentrations of vehicle (DMSO). AP parameters were measured, including APD at 50, 75 and 90% repolarization (APD50, APD75 and APD90 respectively). Data are given as % change from control for the treated groups (vehicle, control and drug). This allowed a single comparison to be made at each concentration, and every experiment was performed with its own set of controls (vehicle). No data were used more than once.

[4] = target: Cav1.2 (rabbit α1-subunit with β2a and α2-δ1) (Oryctolagus cuniculus, UniProt P15381); experiment: in vitro; conditions: rabbit
Description: (§2) The transfection of tsA‐201 cells was performed using the FUGENE6 Transfection Reagent (Roche Diagonstics GmbH, Mannheim, Germany) following standard protocols. The tsA‐201 cells were used until passage number 15. […] The extracellular bath solution (in mM: BaCl2 20, MgCl2 1, HEPES 10, choline‐Cl 90) was titrated to pH 7.4 with methanesulfonic acid. […] The drugs were applied to cells under voltage clamp using a microminifold perfusion system. Ca^2+ channel block was estimated as peak IBa inhibition during a train of short (50 ms) test pulses from −80 mV at a frequency of 0.2 Hz. Patch clamp experiments to study hERG, Nav1.5 and Cav1.2 currents were performed at room temperature (22–25°C). All data were digitized and saved to disc. Current traces were filtered at 5 kHz and sampled at 10 kHz. The pClamp software package (Version 7.0 Axon Instruments, Inc.) was used for data acquisition and preliminary analysis. Microcal Origin 7.0 was used for analysis, and sigmoidal curves were fitted using the Hill equation.
(§3) Use‐dependent channel inhibition was studied during trains of 1 Hz and 50 ms test pulses (from −80 to +10 mV). After the application of 20 test pulses in control (absence of drug), the cells were incubated for 3 min with drug at rest. Peak current inhibition during the first pulse (1st, Figure 6C) in the presence of the drug reflects ‘resting state’ block. Additional current inhibition during a subsequently applied pulse train illustrates use‐dependent block. Peak current inhibition in control and drug are compared in Figure 6D.

[5] = target: rabbit CaV1.2 α1-subunit with β2a and α2-δ1 (Oryctolagus cuniculus, UniProt P15381); experiment: Barium current (IBa) inhibition through Cav1.2 in transfected tsA-201 cells, manual patch clamp; conditions: for Resting state and use-dependent block of Cav1.2: 1 Hz trains of 50 ms pulses after 3 min incubation at rest; for Cav1.2 IC50 (peak IBa inhibition): rabbit, pH 7.4
Description: as §2, §3

[6] = target: Nav1.5 (Homo sapiens, UniProt Q14524); experiment: Sodium current inhibition in HEK cells stably expressing Nav1.5, planar patch clamp
Description: as §1

[7] = read-out: Ki binding studies, radioligand binding, ref Shagufta et al 2009
[8] = Homo sapiens, 0.5 h, read-out: Changes in APD90 in hiPSC-CMs
[9] = Homo sapiens, read-out: D150 (concentration that prolongs the AP by 50%), APD90 in hiPSC-CMs
[10] = Homo sapiens, 0.5 h, read-out: Changes in APD90 in hiPSC-CMs, 1 nM, 30 min exposure
[11] = Homo sapiens, 0.5 h, read-out: Changes in APD90 in hiPSC-CMs, 30 nM, 30 min exposure
[12] = Homo sapiens, 0.5 h, read-out: Changes in APD90 in hiPSC-CMs, 100 nM, 30 min exposure
[13] = Homo sapiens, read-out: D150 (concentration that prolongs the AP by 50%)
[14] = Homo sapiens, 0.5 h, read-out: Changes in APD90 in hiPSC-CMs, 10 nM, 30 min exposure
[15] = Homo sapiens, 0.5 h, read-out: Changes in APD90 in hiPSC-CMs, 300 nM, 30 min exposure
[16] = pH 7.4, Cav1.2 IC50 (peak IBa inhibition)
[17] = Nav1.5 IC50 (peak INa inhibition), holding potential -140 mV, 0.2 Hz

hERG channels, sequence (Q12809 whole entry): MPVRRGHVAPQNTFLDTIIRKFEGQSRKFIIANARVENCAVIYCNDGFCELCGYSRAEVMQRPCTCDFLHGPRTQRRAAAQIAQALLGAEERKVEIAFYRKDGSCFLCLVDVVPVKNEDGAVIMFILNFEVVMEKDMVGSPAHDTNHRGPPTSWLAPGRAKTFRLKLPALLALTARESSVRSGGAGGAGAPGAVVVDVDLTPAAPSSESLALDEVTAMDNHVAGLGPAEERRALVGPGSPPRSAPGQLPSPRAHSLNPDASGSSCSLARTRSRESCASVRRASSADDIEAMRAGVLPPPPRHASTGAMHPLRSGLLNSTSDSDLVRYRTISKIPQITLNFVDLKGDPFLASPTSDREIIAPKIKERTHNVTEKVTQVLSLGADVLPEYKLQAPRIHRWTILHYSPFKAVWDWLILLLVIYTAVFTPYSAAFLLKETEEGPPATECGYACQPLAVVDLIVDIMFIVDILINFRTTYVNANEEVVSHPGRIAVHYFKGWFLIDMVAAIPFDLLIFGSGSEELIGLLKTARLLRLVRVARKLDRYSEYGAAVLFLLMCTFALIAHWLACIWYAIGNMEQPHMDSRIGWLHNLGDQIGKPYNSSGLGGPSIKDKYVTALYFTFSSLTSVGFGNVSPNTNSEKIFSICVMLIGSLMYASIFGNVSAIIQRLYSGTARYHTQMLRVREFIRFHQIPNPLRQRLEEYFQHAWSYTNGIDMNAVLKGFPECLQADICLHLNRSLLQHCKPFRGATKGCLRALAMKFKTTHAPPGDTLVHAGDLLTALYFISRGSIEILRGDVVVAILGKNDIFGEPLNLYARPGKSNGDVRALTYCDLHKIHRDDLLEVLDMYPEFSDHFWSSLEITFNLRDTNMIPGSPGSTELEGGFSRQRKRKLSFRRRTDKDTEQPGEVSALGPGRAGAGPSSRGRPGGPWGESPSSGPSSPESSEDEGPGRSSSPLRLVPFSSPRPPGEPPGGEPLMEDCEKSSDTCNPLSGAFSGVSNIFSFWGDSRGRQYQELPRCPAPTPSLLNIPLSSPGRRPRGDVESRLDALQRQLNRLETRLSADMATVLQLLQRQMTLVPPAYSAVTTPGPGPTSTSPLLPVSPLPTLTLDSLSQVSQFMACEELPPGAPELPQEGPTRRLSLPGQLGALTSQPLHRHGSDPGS
Cav1.2 (rabbit α1-subunit with β2a and α2-δ1), sequence (P15381 whole entry, other chains not shown, the tested form may be a part): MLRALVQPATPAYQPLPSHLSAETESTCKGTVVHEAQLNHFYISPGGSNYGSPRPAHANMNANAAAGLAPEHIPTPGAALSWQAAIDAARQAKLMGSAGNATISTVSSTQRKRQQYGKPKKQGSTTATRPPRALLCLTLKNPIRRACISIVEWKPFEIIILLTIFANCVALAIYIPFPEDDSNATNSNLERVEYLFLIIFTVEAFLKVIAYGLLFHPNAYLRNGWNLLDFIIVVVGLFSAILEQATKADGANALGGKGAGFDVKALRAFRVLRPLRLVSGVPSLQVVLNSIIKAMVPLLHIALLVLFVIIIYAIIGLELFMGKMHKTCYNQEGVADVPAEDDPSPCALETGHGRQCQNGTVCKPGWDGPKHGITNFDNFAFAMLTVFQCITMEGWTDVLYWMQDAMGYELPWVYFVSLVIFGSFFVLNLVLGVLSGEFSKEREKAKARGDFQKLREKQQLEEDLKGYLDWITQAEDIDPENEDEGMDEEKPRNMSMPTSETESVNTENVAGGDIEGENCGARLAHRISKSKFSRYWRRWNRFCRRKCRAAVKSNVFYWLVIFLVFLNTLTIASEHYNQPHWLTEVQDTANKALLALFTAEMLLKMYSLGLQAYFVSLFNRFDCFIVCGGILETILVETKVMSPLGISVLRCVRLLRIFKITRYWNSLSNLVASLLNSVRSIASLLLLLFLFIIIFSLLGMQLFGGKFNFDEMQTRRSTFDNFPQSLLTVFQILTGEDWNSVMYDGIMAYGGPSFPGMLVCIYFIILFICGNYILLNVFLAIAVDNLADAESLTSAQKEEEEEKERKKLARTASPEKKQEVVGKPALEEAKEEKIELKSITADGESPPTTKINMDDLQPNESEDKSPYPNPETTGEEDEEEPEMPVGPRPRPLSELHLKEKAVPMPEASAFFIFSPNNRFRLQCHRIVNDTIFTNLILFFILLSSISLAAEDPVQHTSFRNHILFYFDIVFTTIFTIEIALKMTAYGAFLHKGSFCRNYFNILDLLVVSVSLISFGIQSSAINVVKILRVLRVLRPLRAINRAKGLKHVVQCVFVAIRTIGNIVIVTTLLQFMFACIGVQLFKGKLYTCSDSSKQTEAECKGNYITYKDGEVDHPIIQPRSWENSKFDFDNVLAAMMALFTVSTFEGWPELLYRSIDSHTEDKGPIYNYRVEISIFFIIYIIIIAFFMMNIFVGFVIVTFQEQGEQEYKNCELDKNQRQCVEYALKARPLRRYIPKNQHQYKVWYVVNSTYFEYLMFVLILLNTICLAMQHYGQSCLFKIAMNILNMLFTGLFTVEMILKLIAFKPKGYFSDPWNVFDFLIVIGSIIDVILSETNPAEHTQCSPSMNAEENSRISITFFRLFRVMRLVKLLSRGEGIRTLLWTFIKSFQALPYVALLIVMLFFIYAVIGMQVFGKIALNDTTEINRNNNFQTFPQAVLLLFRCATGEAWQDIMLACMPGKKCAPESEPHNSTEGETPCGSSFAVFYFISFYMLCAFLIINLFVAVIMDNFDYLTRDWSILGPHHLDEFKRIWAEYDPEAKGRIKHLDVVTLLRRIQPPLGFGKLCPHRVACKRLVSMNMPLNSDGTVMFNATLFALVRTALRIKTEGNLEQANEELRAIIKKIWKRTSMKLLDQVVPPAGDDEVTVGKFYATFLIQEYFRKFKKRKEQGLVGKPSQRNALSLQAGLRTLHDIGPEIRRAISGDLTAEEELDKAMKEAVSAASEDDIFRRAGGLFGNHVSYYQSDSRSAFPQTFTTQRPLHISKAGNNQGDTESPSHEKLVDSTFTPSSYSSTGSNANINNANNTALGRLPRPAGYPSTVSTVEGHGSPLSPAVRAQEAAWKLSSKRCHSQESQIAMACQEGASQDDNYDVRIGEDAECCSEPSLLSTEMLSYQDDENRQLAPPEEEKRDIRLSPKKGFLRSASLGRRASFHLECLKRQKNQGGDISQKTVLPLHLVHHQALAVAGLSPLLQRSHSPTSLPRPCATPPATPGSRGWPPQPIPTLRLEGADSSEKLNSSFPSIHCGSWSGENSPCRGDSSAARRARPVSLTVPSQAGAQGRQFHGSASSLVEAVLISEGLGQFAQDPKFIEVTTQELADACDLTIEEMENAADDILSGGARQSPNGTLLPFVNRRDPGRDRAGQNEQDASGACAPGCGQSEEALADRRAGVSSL
Cav1.2 (rabbit α1-subunit with β2a and α2-δ1), sequence (P13806 27-960 partner limits assumed, other chains not shown): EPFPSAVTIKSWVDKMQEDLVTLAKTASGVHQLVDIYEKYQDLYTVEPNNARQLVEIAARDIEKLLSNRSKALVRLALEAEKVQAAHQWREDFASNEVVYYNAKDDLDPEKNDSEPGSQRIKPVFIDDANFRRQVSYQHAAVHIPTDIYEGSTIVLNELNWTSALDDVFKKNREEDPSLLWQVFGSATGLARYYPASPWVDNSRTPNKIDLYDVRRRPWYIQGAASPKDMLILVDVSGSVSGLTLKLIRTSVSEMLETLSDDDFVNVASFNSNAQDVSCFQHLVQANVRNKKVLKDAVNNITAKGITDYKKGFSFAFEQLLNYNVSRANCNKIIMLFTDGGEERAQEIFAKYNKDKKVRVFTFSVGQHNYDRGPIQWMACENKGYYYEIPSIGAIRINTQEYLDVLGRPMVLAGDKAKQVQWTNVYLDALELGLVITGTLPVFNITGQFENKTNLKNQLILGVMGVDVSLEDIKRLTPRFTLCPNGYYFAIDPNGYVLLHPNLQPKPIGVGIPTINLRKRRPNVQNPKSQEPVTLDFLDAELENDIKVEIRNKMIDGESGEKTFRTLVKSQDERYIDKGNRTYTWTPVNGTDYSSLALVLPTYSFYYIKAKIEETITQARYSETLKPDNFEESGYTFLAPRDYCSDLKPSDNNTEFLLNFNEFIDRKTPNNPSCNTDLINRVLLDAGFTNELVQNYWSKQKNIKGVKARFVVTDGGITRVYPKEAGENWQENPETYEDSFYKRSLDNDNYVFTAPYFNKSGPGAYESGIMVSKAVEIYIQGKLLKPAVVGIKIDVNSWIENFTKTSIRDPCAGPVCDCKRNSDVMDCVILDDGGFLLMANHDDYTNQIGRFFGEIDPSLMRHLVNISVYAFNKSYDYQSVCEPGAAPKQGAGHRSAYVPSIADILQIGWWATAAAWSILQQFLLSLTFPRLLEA
Cav1.2 (rabbit α1-subunit with β2a and α2-δ1), sequence (P13806 961-1106 partner limits assumed, other chains not shown): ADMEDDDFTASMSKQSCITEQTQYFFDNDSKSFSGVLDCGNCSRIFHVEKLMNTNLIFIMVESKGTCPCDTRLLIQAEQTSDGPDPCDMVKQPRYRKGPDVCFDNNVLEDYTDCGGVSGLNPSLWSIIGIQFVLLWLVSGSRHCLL
rabbit CaV1.2 α1-subunit with β2a and α2-δ1, sequence (P15381 whole entry, other chains not shown): as the sequence (P15381 whole entry, other chains not shown, the tested form may be a part) above
rabbit CaV1.2 α1-subunit with β2a and α2-δ1, sequence (P13806 27-960 partner limits assumed, other chains not shown): as the sequence (P13806 27-960 partner limits assumed, other chains not shown) above
rabbit CaV1.2 α1-subunit with β2a and α2-δ1, sequence (P13806 961-1106 partner limits assumed, other chains not shown): as the sequence (P13806 961-1106 partner limits assumed, other chains not shown) above

SMILES | Ki [1, 7] [nM] | IC50 [2] [nM] | activity at 0.01 µM [3, 8] [%] | activity at 0.1 µM [3, 8] [%] | activity at 0.3 µM [3, 8] [%] | activity at 1 µM [3, 8] [%] | EC (50% APD prolongation) [3, 9] [µM] | Incidence of EADs ([3]; hiPSC-CMs) | Maximal AP prolongation ([3]; hiPSC-CMs) [%] | activity at 0.001 µM [3, 10] [%] | activity at 0.03 µM [3, 11] [%] | EC (50% APD prolongation) [3, 13] [µM] | activity at 0.01 µM [3, 14] [%] | further results
CN(CCOc1ccccc1)CCc1ccccc1 [Dofe30] | > 10000 | 297 ± 77.5 | 99 | 105 | 190 | 140 | 0.213 | without (if any) incidence of EADs |  |  |  |  |  | activity at 0.03 µM [3, 8]: 92%
Cc1ccc(CCN(C)CCOc2ccc(C)cc2)cc1 [Dofe33] |  |  |  |  |  |  |  |  | 250 |  |  |  |  | Effect on APD90 / AP prolongation (in words) [3]: negligible effect on APD90 prolongation until 100 nM
CCN(CCOc1ccc([N+](=O)[O-])cc1)CCc1ccc([N+](=O)[O-])cc1 [Dofe54] | 1.2 ± 0.6 | 2.6 ± 0.4 |  |  |  |  |  | incidence of EADs at the higher concentrations | ≤ 1000 | 107 | 702 | 0.0043 |  | activity at 0.1 µM [3, 12]: 710%
O=[N+]([O-])c1ccc(CCN(CCF)CCOc2ccc([N+](=O)[O-])cc2)cc1 [Dofe60] |  |  |  |  |  |  |  | incidence of EADs at the higher concentrations | ≤ 1000 | 95 | 185 | 0.0213 | 112 | activity at 0.1 µM [3, 12]: 771%; activity at 0.3 µM [3, 15]: 413%
CN(CCCCOc1ccc([N+](=O)[O-])cc1)CCc1ccc([N+](=O)[O-])cc1 [Dofe81] |  | 10.7 |  |  |  |  |  | incidence of EADs at the higher concentrations | ≤ 1000 | 117 | 858 | 0.0025 | 389 | Ki [1]: 1.8 ± 1.6 nM
CN(CCOc1ccc(Cl)cc1)CCc1ccc(Cl)cc1 [Dofe31] |  |  | 100 | 108 | 214 | 296 | 0.151 |  |  |  |  |  |  | Incidence of EADs [3]: without (if any) incidence of EADs; activity at 0.001 µM [3, 8]: 127%; activity at 0.03 µM [3, 8]: 103%
Cc1ccc(OCCN(C)CCc2ccccc2)cc1 [Dofe43] |  |  | 167 | 156 | 175 | 390 | 0.0993 | without (if any) incidence of EADs |  |  |  |  |  | 
CN(CCOc1ccc([N+](=O)[O-])cc1)CCc1ccccc1 [Dofe45] |  |  | 71 | 89 | 95 | 215 | 0.538 | without (if any) incidence of EADs |  |  |  |  |  | Effect on APD90 / AP prolongation (in words) ([3]; hiPSC-CMs): only slightly prolonged the AP; also recorded: slightly prolonged the AP at high concentrations; IC50 [4, 16]: 190 ± 3 nM; IC50 ([4]; pH 7.4, Cav1.2 IC50 used for AP simulation): 200 nM; Peak current decay after 20 pulses at 1 Hz (use-dependent block) ([5]; 100 nM, 50 ms pulses from -80 to +10 mV, control 12 ± 2%): 42 ± 6%; Resting state and use-dependent block of Cav1.2 [5]: pronounced resting state block and additional use‐dependent block; Cav1.2 IC50 (peak IBa inhibition) [5]: 192 ± 28 nM; IC50 [6, 17]: 69700 ± 1000 nM; IC50 ([6]; Nav1.5 IC50 used for AP simulation, value entered in in silico hiPSC-CM AP model (Figure 8C)): 8900 nM and 10000 nM; IC50 ([6]; human, pH 7.4, Nav1.5 IC50 (peak INa inhibition)): 6400 ± 1000 nM
CN(CCOc1ccc([N+](=O)[O-])cc1)CCc1ccc([N+](=O)[O-])cc1 [Dofe35] |  | 22.1 |  |  |  |  |  | incidence of EADs at the higher concentrations | ≤ 1000 | 102 | 770 | 0.0083 | 159 | Ki [1]: 5.7 ± 3 nM; activity at 0.1 µM [3, 12]: 746%; activity at 0.3 µM [3, 15]: 650%
CN(CCOc1ccc(Cl)cc1)CCc1ccccc1 [Dofe41] |  |  | 140 | 144 | 162 | 262 | 0.157 | without (if any) incidence of EADs |  |  |  |  |  | 
CN(CCOc1ccc(NS(C)(=O)=O)cc1)CCc1ccc(NS(C)(=O)=O)cc1 [Dofetilide, reference compound] |  |  |  |  |  |  | 4e-05 | incidence of EADs at concentrations of 10, 30 and 100 nM |  | 246 | 827 |  | 641 | Ki [1]: 4.1 ± 0.9 nM; Spontaneous rate of myocyte contraction ([3]; 100 nM, hiPSC-CMs): dramatically increased; activity at 0.0001 µM ([3]; Homo sapiens, 0.5 h, read-out: Changes in APD90 in hiPSC-CMs, 0.1 nM, 30 min exposure): 191%
CN(CCOc1ccc(Cl)c(Cl)c1)CCc1ccccc1 [Dofe44] | 2.4 ± 2.2 | 38.1 ± 12.6 | 90 | 83 | 87 | 92 | > 0.6 |  |  |  |  |  |  | Effect on APD90 / AP prolongation (in words) ([3]; hiPSC-CMs): did not affect APD90 even at 1 μM; also recorded: did not induce prolongation of AP; IC50 [4, 16]: > 100000 nM; Resting state and use-dependent block of Cav1.2 [5]: No use‐dependent block; Cav1.2 IC50 (peak IBa inhibition) [5]: > 200000 nM; Shift of Nav1.5 concentration-response curve towards lower concentrations ([6]; -80 mV versus -140 mV holding potential): fivefold; IC50 ([6]; Nav1.5 IC50 (peak INa inhibition), holding potential -80 mV): 4700 ± 2000 nM; IC50 [6, 17]: 23300 ± 1900 nM
CN(CCCOc1ccc([N+](=O)[O-])cc1)Cc1ccc([N+](=O)[O-])cc1 [Dofe78] | 5.1 ± 1.9 | 28.2 ± 4.9 | 116 | 420 | 300 | 417 | 0.02 | incidence of EADs at the higher concentrations | ≤ 1000 |  |  |  |  | 
